Measured values as given in patent US20130028986A1, “Pharmaceutical Compositions” (SABAREP LIMITED, priority 2005, published 2013).

Tested on: skin or epidermal barrier (skin treated with clobetasol propionate)
Test: Topical corticosteroid induced protease skin barrier damage model (tape stripping, TEWL)
Assay type: in vivo, human (volunteer)
Settings: for rate of TEWL increase during tape stripping: compared to control and vehicle alone, up to 20 tape strips
Excerpt: Topical glucocorticoids (corticosteroids), which are used in the treatment of atopic dermatitis, damage the skin barrier and cause changes to the lipids within the epidermis, and a reduction in the number corneodesmosomes holding the corneocytes together. […] Therefore, skin that has been pretreated with gluticocorticoids can provide a good model in which to test the efficacy of compounds for their capacity to restore the skin or epidermal barrier and to be useful in the treatment of dermato logical conditions that compromise the skin or epidermal barrier, particularly those involving an abnormal decrease in the cell-to-cell adhesion between epithelial cells (in particular between corneocytes) such as atopic eczema or dermatitis, sebarrhoeic eczema, irritant contact dermatitis, allergic contact dermatitis and other sensitive skin conditions. […] The techniques disclosed by Kao et al. provide a measure of barrier integrity and corneocyte cohesion (any increases in TEWL are indicative of a loss in barrier function and increases in total protein removed by the skin strips are the result of a loss of intercellular cohesion, and vice versa). The methods employed by Kao were therefore used in the following examples. The TEWL measurements were taken using an “Aquaflux AF 102” electrolytic water analyser (Available from Biox Systems Ltd, Southwark Campus, 103 Borough Road, London SE1 0AA, UK) in the manner described in Berg et al. (Berg, E. P. Pascut, F. C, Ciortea, L. L, O'Driscoll, D., Xiao, P. and Imhof, R. E. (2002), Aquaflux—A new instrument for water vapour flux density measurement Proceedings of the 4th International Symposium on Humidity and Moisture, Centre for Measurement Standards, ITRI, RoC, ISBN 957-774-423-0, pp. 288-95) and Ciortea et al. (Ciortea, L. I. O'Driscoll, D., Berg, E. P., Xiao, P., Pascut, F. C. and Imhof, R. E. (2002), New methods for measuring water desorption and vapour permeation rates in membranes Proceedings of the 4th International Symposium on Humidity and Moisture, Centre for Measurement Standards, ITRI, RoC, ISBN 957-774-423-0, pp. 288-95).
Microfine zinc oxide (available from BASF Aktiengesellschaft, 67056 Ludwigshafen, Germany, under the trade mark Z-Cote®, item no. 55082355, or from Univar, Basildon, Essex, UK, as item no. 76011010; see also: Z-Cote®, BASF; Mitchnick, M. A., Fairhurst, D. and Pinnell, S. R. (1999) J Am Acad Dermatol 40: 85-90) (25%) in light liquid paraffin was applied twice a day to a volunteer's left forearm for 4 days; their right forearm received light liquid paraffin only. One fingertip unit of clobetasol propionate (a potent corticosteroid) was then applied twice a day to the study areas for 3 days. TEWL was then measured at base line and following the removal of 4, 8, 12 and 16 tape strips.
Microfine zinc oxide, 5 and 15%, in light liquid paraffin was applied twice a day to a volunteer's the left bicep and left forearm for 4 days, respectively; the right bicep received light liquid paraffin only. […] TEWL was then measured at base line and following the removal of 4, 8, 12 and 16 tape strips. […]
Four finger dips of 12 mg/ml zinc stearate in light liquid paraffin were applied to the right forearm for 9 days, twice daily. […] On day 10, TEWL was measured at base line following the removal of 4, 8, 12 and 16 tape strips. […]

[O-2].[Zn+2] [Microfine zinc oxide, zinc oxide]
reduction in TEWL following the removal of 16 tape strips (Example Ia, FIG. 2, 25% in light liquid paraffin twice a day for 4 days on left forearm, then clobetasol propionate twice a day for 3 days, compared with light liquid paraffin only): 37.5%
protective effect (TEWL at base line and after 4, 8, 12 and 16 tape strips) (Example Ib, FIG. 3, 5 and 15% in light liquid paraffin twice a day for 4 days, clobetasol propionate twice a day for 3 days, compared with light liquid paraffin only): dose-dependant response
rate of TEWL increase during tape stripping (Example Ie, FIG. 6, zinc oxide 25% (alone or with 12 mg/ml palmitic acid) in PEG400/ethanol (7:3) 6 times a day for 4 days, clobetasol propionate 3 times over 48 hours): significantly reduced

zinc stearate
protection against the effects of clobetasol (TEWL at base line and after 4, 8, 12 and 16 tape strips) (Example Ic, FIG. 4, 12 mg/ml in light liquid paraffin twice daily for 9 days on right forearm, clobetasol propionate twice a day on days 6 to 9, TEWL on day 10): can also protect against the effects of clobetasol

CCCCCCCCCCCCCCCC(=O)O [palmitic acid, Hexadecanoic acid]
rate of TEWL increase during tape stripping (Example Id, FIG. 5, 12 mg/ml in PEG400/ethanol (7:3) 6 times a day for 4 days, then clobetasol propionate 3 times over 24 hours): significantly reduced
